Measured values: US12227535B2, “Triterpene saponins, methods of synthesis and uses thereof” (SLOAN KETTERING INSTITUTE FOR CANCER RESEARCH, priority 2008, dated 2025)

Columns and labels:
GD3 ganglioside = test: Anti-GD3 antibody ELISA after vaccination of mice with GD3-KLH conjugate plus QS-21 adjuvants (Example 4); assay type: in vivo, mice (C57BL/6J, female); conditions: after 3 weekly vaccinations with GD3-KLH; adjuvant doses 10 and 20 μg; compared with GD3-KLH alone
Protocol: Using similar protocols, the immuno-potentiating properties of the synthetic adjuvants SQS-21-Api and SQS-21-Xyl were evaluated in mice (C57BL/6J, female, six weeks of age). […]
Groups of five mice were immunized with the melanoma antigen GD3 ganglioside conjugated to KLH (GD3-KLH) at a 10 μg antigen dose per vaccination. […] Immunopotentiation was assessed by testing for the presence of antibody against GD3 and KLH by ELISA, and against a tumor cell-line SK-MEL-28, expressing GD3 antigen, by FACS.
The antibody response after vaccination with GD3-KLH conjugate with or without adjuvant was determined with an ELISA assay using either GD3 ganglioside or KLH protein as target. […] After the third vaccination, no IgG antibodies against GD3 were detected; however, after the fourth immunization IgM and IgG antibody titers were induced in most mice. […]

[1] = Toxicity: loss of weight after each injection; assay type: in vivo, mice (C57BL/6J, female); conditions: monitored 0 h, 24 h, 48 h, 72 h after each injection; GD3-KLH 10 μg; adjuvant 20 μg; 4-week duration
Protocol: As a measure of toxicity, loss of weight was monitored at 0 h, 24 h, 48 h and 72 h after each injection. […] As the negative control, vaccinations employing GD3-KLH only (no adjuvant) led to no appreciable weight loss after each injection.

[2] = in vivo; cited from earlier work

| Compound | IgM antibody response against GD3 (antibody titers) (GD3 ganglioside) | weight loss after each injection [1] | maximum dose [2] [µg] |
| --- | --- | --- | --- |
| CC[C@H](C)[C@H](C[C@H](O)CC(=O)O[C@H]1C(C)O[C@@H](OC(=O)[C@]23CCC(C)(C)CC2C2=CCC4C5(C)CC[C@H](O[C@@H]6OC(C(=O)O)[C@@H](O)[C@H](O[C@@H]7OC[C@@H](O)[C@H](O)C7O)C6O[C@@H]6OC(CO)[C@H](O)[C@H](O)C6O)[C@](C)(C=O)[C@@H]5CC[C@]4(C)[C@]2(C)CC3O)C(O[C@@H]2OC(C)[C@H](O[C@@H]3OC[C@@H](O)C(O[C@@H]4OC[C@@H](O)C(O)C4O)C3O)C(O)C2O)C1O)OC(=O)C[C@@H](O)C[C@H](O[C@@H]1O[C@@H](CO)C(O)C1O)[C@@H](C)CC (some centres unmarked) [SQS-21-Xyl, QS-21-Xyl] | significantly higher than the group with GD3-KLH alone | very similar | – |
| QS-21 | – | – | ≤ 50 |
| CC[C@H](C)[C@H](C[C@H](O)CC(=O)O[C@H]1C(C)O[C@@H](OC(=O)[C@]23CCC(C)(C)CC2C2=CCC4C5(C)CC[C@H](O[C@@H]6OC(C(=O)O)[C@@H](O)[C@H](O[C@@H]7OC[C@@H](O)[C@H](O)C7O)C6O[C@@H]6OC(CO)[C@H](O)[C@H](O)C6O)[C@](C)(C=O)[C@@H]5CC[C@]4(C)[C@]2(C)CC3O)C(O[C@@H]2OC(C)[C@H](O[C@@H]3OC[C@@H](O)C(O[C@@H]4OCC(O)(CO)[C@@H]4O)C3O)C(O)C2O)C1O)OC(=O)C[C@@H](O)C[C@H](O[C@@H]1O[C@@H](CO)C(O)C1O)[C@@H](C)CC (some centres unmarked) [SQS-21-Api, QS-21-Api] | significantly higher than the group with GD3-KLH alone | very similar | – |
